Test results taken from US8466112B2, “Compositions comprising Ornithine Ketoglutarate (OKG)” (Cutech S.r.l., priority 2007, dated 2013).

Tests used:
hair follicles [1] = experiment: Relative growth of hair follicles compared to control, OKG versus Ornithine and alpha-Ketoglutarate; assay type: cell-based, human; conditions: for Growth of hair follicles - elongation ± standard error, relative to control (100): after 6 days of cultivation
Description: (§1) Human anagen hair follicles were isolated from scalp skin and transferred for cultivation in sterile 24 well plates using a modified Williams' Medium E. Cultivation took place for nine days, while the experimental treatment of the follicles started 24 hours from the beginning of the cultivation.
(§2) Hair follicles taken from a single donor were selected for the experiments after 18 h of cultivation. Only those follicles showing a good vital stage and a growth of not less than 0.2 mm have been considered suitable to be maintained in culture. 4 groups were prepared comprising 9 follicles, plated at the density of 3 hair follicles/plate. […] The growth of the hair follicles was studied by microphotography and subsequently determined by image analysis. All the hair follicles were photographed every two days.
In order to show the superiority of OKG compared to Ornithine on one hand and alpha-Ketoglutarate on the other, the influence of these compounds on the metabolism of hair follicles was studied under the conditions as explained in Examples 1 and 2. […] Examples 3 and 4 are according to the invention, examples C1-C4 are shown for comparison.

A 549 cells = conditions: disclosed in WO 06/075924 A1; cited from earlier work
[2] = tested on: cells in the dermopapilla; experiment: Number of proliferative (Ki-67) and apoptotic (Apoptag) cells in the dermopapilla; assay type: cell-based, human; conditions: after three days of cultivation
Description: After three days of cultivation samples were taken in order to determine the relative number of cells being in the proliferative or apoptotic state. The cells in apoptotic state were determined using an Apoptag Fluorescein In-situ Apoptosis Detection Kit (Chemicon International cod. S7110), while those in proliferative state were marked with the antibody Ki-67 (monoclonal mouse anti-human Ki-67, clone MIB1, Dako Cytomation cod. M7240). The total number of cells in the dermopapilla was analysed by marking their nuclei by means of DAPI (4′, 6-diamidino-2-phenylindol dihydrochloride). The percentage of cells in the proliferative or apoptotic stage compared to the total number of cells was determined again by image analysis.

hair follicles [3] = experiment: Histological analysis of hair follicles (anagen/catagen phase); assay type: cell-based, human; conditions: after 9 days of cultivation
From the text: The experiment according to Examples 1 and 2 was terminated after 9 days of cultivation. Subsequently, the hair follicles were subjected to a histological analysis by colouring with haematossilin and eosin in order to verify the morphological state of the dermopapilla.

[4] = tested on: Human anagen hair follicles; experiment: Growth (elongation) of cultivated human hair follicles; assay type: cell-based
Description: as §1, §2

O=C(O)CCC(=O)C(=O)O [alpha-Ketoglutarate]
Growth of hair follicles - elongation ± standard error, relative to control (100) (hair follicles [1]; Conc. 0.001% b.w.): 103.1 ± 3.1% | Growth of hair follicles - elongation ± standard error, relative to control (100) (hair follicles [1]; Conc. 0.01% b.w.): 103.8 ± 3.8%

NCCC[C@H](N)C(=O)O [Ornithine]
Growth of hair follicles - elongation ± standard error, relative to control (100) (hair follicles [1]; Conc. 0.001% b.w.): 105.1 ± 5.1% | Growth of hair follicles - elongation ± standard error, relative to control (100) (hair follicles [1]; Conc. 0.01% b.w.): 102.1 ± 5.0%

Ornithine Ketoglutarate [OKG]
Hair follicle stimulation compared to Ornithine and alpha-Ketoglutarate taken alone (in words) (hair follicles [1]; 0.001 and 0.01% b.w., 6 days): superiority and synergistic effect | Growth of hair follicles - elongation ± standard error, relative to control (100) (hair follicles [1]; Conc. 0.001% b.w.): 112.7 ± 3.1% | Growth of hair follicles - elongation ± standard error, relative to control (100) (hair follicles [1]; Conc. 0.01% b.w.): 110.4 ± 4.0% | Effect on proliferation of A 549 cells (in words) (A 549 cells): stimulate the proliferation of A 549 cells | Number of cells in Apoptotic stage ± standard error (of total cells) ([2]; OKG 0.1% b.w., control 0.48%): 0.17% ± 0.073 | Number of cells in Proliferative stage ± standard error (of total cells) ([2]; OKG 0.1% b.w., control 10.74%): 10.51% ± 0.17 | Effect on number of apoptotic cells (in words) [2]: significantly reduces the number of apoptotic cells | Hair follicles in Catagen phase (hair follicles [3]; OKG 0.1% b.w., control 44%): 22% | Hair follicles in Anagen phase (hair follicles [3]; OKG 0.1% b.w., control 56%): 78% | Effect on decline to the catagen phase (in words) (hair follicles [3]): significantly delayed the decline to the catagen phase | Growth of hair follicles - elongation ± standard error ([4]; OKG 0.005% b.w. in cultivation medium, day 1 of cultivation): 0 mm | Growth of hair follicles - elongation ± standard error ([4]; OKG 0.005% b.w. in cultivation medium, day 3 of cultivation): 0.84 ± 0.022 mm | Growth of hair follicles - elongation ± standard error ([4]; OKG 0.005% b.w. in cultivation medium, day 5 of cultivation): 1.50 ± 0.078 mm | Growth of hair follicles - elongation ± standard error ([4]; OKG 0.005% b.w. in cultivation medium, day 7 of cultivation): 1.98 ± 0.155 mm | Growth of hair follicles - elongation ± standard error ([4]; OKG 0.005% b.w. in cultivation medium, day 9 of cultivation): 2.35 ± 0.253 mm | Growth of hair follicles - elongation ± standard error ([4]; OKG 0.01% b.w. in cultivation medium, day 1 of cultivation): 0 mm | Growth of hair follicles - elongation ± standard error ([4]; OKG 0.01% b.w. in cultivation medium, day 3 of cultivation): 0.88 ± 0.024 mm | Growth of hair follicles - elongation ± standard error ([4]; OKG 0.01% b.w. in cultivation medium, day 5 of cultivation): 1.63 ± 0.067 mm | Growth of hair follicles - elongation ± standard error ([4]; OKG 0.01% b.w. in cultivation medium, day 7 of cultivation): 2.25 ± 0.086 mm | Growth of hair follicles - elongation ± standard error ([4]; OKG 0.01% b.w. in cultivation medium, day 9 of cultivation): 2.77 ± 0.163 mm | Effect on growth of the hair follicles (in words) ([4]; addition of OKG 0.005 to 0.01% b.w. versus control): significant increase in growth of the hair follicles
